Experimental data published in PubChem BioAssay AID256 (DTP/NCI, 2004).
Several values for one entry are separate records, joined by “and”; a condition that tells them apart may be missing. Equal entries are not always repeated. Toxic doses and inconclusive results are not listed.

Tested on: CD2F1 mice, L1210 leukemia ip, survival T/C
Assay: NCI In Vivo Anticancer Drug Screen. Data for tumor model L1210 Leukemia (intraperitoneal) in CD2F1 (CDF1) mice
Conditions: endpoint: mean survival time, higher = longer survival
In short: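 Transplantable tumor in mice; compound-treated vs vehicle-treated groups. Read-out = treated/control ratio of the measured endpoint.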

[1] = dose: 50.0 mg/kg/injection, schedule: Q04DX003 (ip), vehicle: saline with Tween-80
[2] = dose: 100.0 mg/kg/injection, schedule: Q01DX001 (ip), vehicle: saline with Tween-80
[3] = dose: 100.0 mg/kg/injection, schedule: Q04DX003 (ip), vehicle: saline with Tween-80
[4] = dose: 200.0 mg/kg/injection, schedule: Q01DX001 (ip), vehicle: saline with Tween-80
[5] = dose: 200.0 mg/kg/injection, schedule: Q04DX003 (ip), vehicle: saline with Tween-80
[6] = dose: 400.0 mg/kg/injection, schedule: Q04DX003 (ip), vehicle: saline with Tween-80

Question: Which results are given for `Cc1c[nH]c(=O)n(CC(=O)C2(O)CCC3C4CCC5=CC(=O)CCC5(C)C4CCC32C)c1=O` (centres undefined)?
Answer: T/C (dose: 12.5 mg/kg/injection, schedule: Q04DX003 (ip), vehicle: Klucel (hydroxypropylcellulose) (HPC)): 103 % of control; T/C (dose: 25.0 mg/kg/injection, schedule: Q04DX003 (ip), vehicle: Klucel (hydroxypropylcellulose) (HPC)): 102 % of control; T/C (dose: 50.0 mg/kg/injection, schedule: Q04DX003 (ip), vehicle: Klucel (hydroxypropylcellulose) (HPC)): 102 % of control; T/C (dose: 100.0 mg/kg/injection, schedule: Q04DX003 (ip), vehicle: Klucel (hydroxypropylcellulose) (HPC)): 97 % of control; T/C (dose: 200.0 mg/kg/injection, schedule: Q04DX003 (ip), vehicle: Klucel (hydroxypropylcellulose) (HPC)): 100 % of control

Question: Which results are given for `c1ccc(N/N=C2/CSCc3ccccc32)cc1`?
Answer: T/C (dose: 100.0 mg/kg/injection, schedule: Q01DX009 (ip), vehicle: Klucel (hydroxypropylcellulose) (HPC)): 98 % of control; T/C (dose: 200.0 mg/kg/injection, schedule: Q01DX009 (ip), vehicle: Klucel (hydroxypropylcellulose) (HPC)): 93 % of control; T/C (dose: 400.0 mg/kg/injection, schedule: Q01DX009 (ip), vehicle: Klucel (hydroxypropylcellulose) (HPC)): 93 % of control

Question: How did the T/C [1] turn out when `CC1=CCCN(CCc2c[nH]c3ccccc23)C1` was run?
Answer: 97 % of control

Question: And the T/C [2]?
Answer: 90 % of control

Question: What about the T/C [3] of the same compound?
Answer: 101 % of control

Question: And the T/C [4]?
Answer: 90 % of control

Question: With `Oc1cccc2c1NCCC2` as the compound, how does the T/C (dose: 25.0 mg/kg/injection, schedule: Q04DX003 (ip), vehicle: saline with Tween-80) read?
Answer: 104 % of control

Question: And the T/C [1]?
Answer: 98 % of control

Question: And the T/C [3]?
Answer: 91 % of control and 102 % of control

Question: For `CC(=O)OC1CC(C)CCC1C(C)C` (centres undefined), which T/C [3] is on record?
Answer: 113 % of control

Question: And the T/C [5]?
Answer: 106 % of control

Question: Which T/C (dose: 0.78 mg/kg/injection, schedule: Q01DX009 (ip), vehicle: Klucel (hydroxypropylcellulose) (HPC)) does the source give for `S=P(N1CC1)(N1CC1)N1CC1.[Cl-].[Cl-].[NH2-].[NH2-].[Pt+4]` here?
Answer: 112 % of control and 101 % of control

Question: And the T/C (dose: 1.56 mg/kg/injection, schedule: Q01DX009 (ip), vehicle: Klucel (hydroxypropylcellulose) (HPC))?
Answer: 114 % of control and 115 % of control and 107 % of control

Question: And the T/C (dose: 3.13 mg/kg/injection, schedule: Q01DX009 (ip), vehicle: Klucel (hydroxypropylcellulose) (HPC))?
Answer: 153 % of control

Question: And the T/C (dose: 6.25 mg/kg/injection, schedule: Q01DX009 (ip), vehicle: Klucel (hydroxypropylcellulose) (HPC))?
Answer: 111 % of control

Question: Which T/C [3] does the source give for `O=C(N1CCC2(CC1)SSC1(CCN(C(=O)C(F)(F)F)CC1)S2)C(F)(F)F` here?
Answer: 88 % of control

Question: What about the T/C [5] of the same compound?
Answer: 90 % of control

Question: And the T/C [6]?
Answer: 90 % of control

Question: `COc1cccc2c1C(=O)c1c(O)c3c(c(O)c1C2=O)C[C@@](O)(C(=O)CSc1ccccc1)C[C@@H]3OC1CC(N)C(O)C(C)O1` (some centres undefined) was tested. Which T/C (dose: 0.78 mg/kg/injection, schedule: Q01DX009 (ip), vehicle: water) did it give?
Answer: 107 % of control

Question: What about the T/C (dose: 1.56 mg/kg/injection, schedule: Q01DX009 (ip), vehicle: water) of the same compound?
Answer: 106 % of control

Question: What about the T/C (dose: 3.13 mg/kg/injection, schedule: Q01DX009 (ip), vehicle: water) of the same compound?
Answer: 101 % of control

Question: And the T/C (dose: 6.25 mg/kg/injection, schedule: Q01DX009 (ip), vehicle: water)?
Answer: 106 % of control

Question: What about the T/C (dose: 12.5 mg/kg/injection, schedule: Q01DX009 (ip), vehicle: water) of the same compound?
Answer: 101 % of control

Question: How did the T/C (dose: 100.0 mg/kg/injection, schedule: Q01DX001 (ip), vehicle: other) turn out when `Cc1ccccc1NC(=O)CN(C)C` was run?
Answer: 98 % of control

Question: And the T/C (dose: 200.0 mg/kg/injection, schedule: Q01DX001 (ip), vehicle: other)?
Answer: 103 % of control

Question: For `CC1(C)CCSC(/C=C/c2ccccc2)=N1`, which T/C (dose: 100.0 mg/kg/injection, schedule: Q01DX009 (ip), vehicle: other) is on record?
Answer: 101 % of control

Question: And the T/C (dose: 200.0 mg/kg/injection, schedule: Q01DX009 (ip), vehicle: other)?
Answer: 117 % of control

Question: What about the T/C (dose: 400.0 mg/kg/injection, schedule: Q01DX009 (ip), vehicle: other) of the same compound?
Answer: 109 % of control

Question: Which results are given for `O=S1(=O)CCCC1C(O)c1ccccc1` (centres undefined)?
Answer: T/C (dose: 100.0 mg/kg/injection, schedule: Q04DX003 (ip), vehicle: other): 100 % of control; T/C (dose: 200.0 mg/kg/injection, schedule: Q04DX003 (ip), vehicle: other): 95 % of control; T/C (dose: 400.0 mg/kg/injection, schedule: Q04DX003 (ip), vehicle: other): 95 % of control

Question: Which results are given for `COc1ccccc1NC(=O)NCCN(C)c1ccccc1`?
Answer: T/C (dose: 100.0 mg/kg/injection, schedule: Q04DX002 (ip), vehicle: saline with Tween-80): 88 % of control; T/C (dose: 200.0 mg/kg/injection, schedule: Q04DX002 (ip), vehicle: saline with Tween-80): 88 % of control

Question: How did the T/C (dose: 100.0 mg/kg/injection, schedule: Q01DX005 (ip), vehicle: saline) turn out when `NC(=O)c1cn(C2OC(CO)C(O)C2O)nc1N` (centres undefined) was run?
Answer: 100 % of control

Question: What about the T/C (dose: 200.0 mg/kg/injection, schedule: Q01DX005 (ip), vehicle: saline) of the same compound?
Answer: 105 % of control

Question: With `CCCC(O)C(CC)[N+](=O)[O-]` (centres undefined) as the compound, how does the T/C [2] read?
Answer: 102 % of control

Question: What about the T/C [4] of the same compound?
Answer: 98 % of control

Question: And the T/C (dose: 400.0 mg/kg/injection, schedule: Q01DX001 (ip), vehicle: saline with Tween-80)?
Answer: 94 % of control

Question: Which results are given for `COc1ccc(C[C@@H]2NC[C@@H](O)[C@@H]2OC(C)=O)cc1`?
Answer: T/C (dose: 100.0 mg/kg/injection, schedule: Q01DX009 (ip), vehicle: saline with Tween-80): 98 % of control; T/C [3]: 105 % of control; T/C (dose: 200.0 mg/kg/injection, schedule: Q01DX009 (ip), vehicle: saline with Tween-80): 104 % of control; T/C [5]: 103 % of control; T/C [6]: 100 % of control
